# Measurements from patent publication US20090170773A1, “NOVEL USE OF G-PROTEIN-CONJUGATED RECEPTOR AND LIGAND THEREOF” (RIKEN, priority 2006, published 2009).
# Experiments:
# [1] = molecular target: T1, RAIG2 (Homo sapiens, UniProt Q9NZH0); assay: Insulin secretion in MIN6 cells having RAIG2 expressed forcibly (ELISA); assay type: cell-based, mouse; conditions: 0.6 mM 1,5-AG added to 2.8 mM glucose, FIG. 2a
# T1 construct: expressed in transfected cells; host or cells: mouse insulinoma MIN6 cells, transient transfection with pIRES2-EGFP (CLONTECH) vector
# T1 sequence (Q9NZH0 29-403): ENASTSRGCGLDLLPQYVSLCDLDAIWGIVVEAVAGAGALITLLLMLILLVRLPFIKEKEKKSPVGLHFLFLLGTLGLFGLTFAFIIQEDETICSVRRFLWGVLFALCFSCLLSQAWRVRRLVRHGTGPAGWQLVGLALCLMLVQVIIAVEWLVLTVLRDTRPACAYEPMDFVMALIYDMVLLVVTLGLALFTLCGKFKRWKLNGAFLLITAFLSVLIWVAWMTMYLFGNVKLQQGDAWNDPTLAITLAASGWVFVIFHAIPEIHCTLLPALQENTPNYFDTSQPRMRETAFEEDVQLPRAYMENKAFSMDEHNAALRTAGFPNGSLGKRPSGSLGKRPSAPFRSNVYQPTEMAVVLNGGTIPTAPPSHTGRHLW
# Protocol: (§1) Mouse insulinoma MIN6 cells (supplied by Dr. Junichi Miyazaki at the Division of Stem Cell Regulation Research, Department of Molecular Therapeutics, G6 Division of Pathophysiology and Therapeutics, Osaka University Graduate School of Medicine) were cultured in a 24-well plate containing a DMEM comprising 15% fetal calf serum (inactivated by treatment at 56° C. for 30 minutes), 5 μl/l β-mercaptoethanol and 4.5 g/l glucose, in an atmosphere of 5% CO2/95% air, at 37° C. and low density. cDNAs of RAIG2 and RAIG3 were obtained from a human brain or liver cDNA library by a conventional method of PCR. This was inserted into pIRES2-EGFP (CLONTECH). After 24 hours, the above-described cells were transfected with an expression vector containing the RAIG2 or RAIG3 cDNA. The transfection was performed using Lipofectamin 2000 (Invitrogen), as directed in the manufacturer's manual. After 48 hours of further cultivation, the cells were retained in a KRBB solution [129 mM NaCl, 4.8 mM KCl, 1.2 mM MgSO4, 1.2 mM KH2PO4, 4.8 mM NaHCO3, 10 mM HEPES, 2.5 mM CaCl2, 0.2% bovine serum albumin (pH adjusted to 7.4)] containing 2.8 mM glucose at 37° C. for 15 minutes, and then washed. […] Each 10 μl portion of the culture supernatant was taken, and the insulin content was measured by ELISA.
# [2] = molecular target: T2, RAIG3 (Homo sapiens, UniProt Q9NQ84); assay: Insulin secretion in MIN6 cells having RAIG3 expressed forcibly (ELISA); assay type: cell-based; conditions: 0.6 mM 1,5-AG added to 2.8 mM glucose, FIG. 2b
# T2 construct: expressed in transfected cells; host or cells: mouse insulinoma MIN6 cells, transient transfection with pIRES2-EGFP (CLONTECH) vector
# T2 sequence (Q9NQ84 1-453 isoform Q9NQ84-2): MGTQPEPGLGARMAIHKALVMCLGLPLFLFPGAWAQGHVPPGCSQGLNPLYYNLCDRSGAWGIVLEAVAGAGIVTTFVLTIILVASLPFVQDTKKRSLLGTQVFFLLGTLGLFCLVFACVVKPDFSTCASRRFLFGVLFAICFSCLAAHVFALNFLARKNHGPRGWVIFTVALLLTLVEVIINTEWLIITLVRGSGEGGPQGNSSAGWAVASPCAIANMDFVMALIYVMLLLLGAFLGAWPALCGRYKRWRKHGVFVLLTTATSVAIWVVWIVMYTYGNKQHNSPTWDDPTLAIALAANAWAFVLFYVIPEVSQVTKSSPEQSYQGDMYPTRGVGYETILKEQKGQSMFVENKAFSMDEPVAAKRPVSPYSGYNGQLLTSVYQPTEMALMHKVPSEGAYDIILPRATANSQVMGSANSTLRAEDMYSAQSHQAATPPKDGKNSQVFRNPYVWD
# Protocol: as §1
structure (smiles),measurement,setting,value
"OC[C@H]1OC[C@H](O)[C@@H](O)[C@@H]1O [1,5-AG, 1,5-anhydroglucitol]",insulin release,[1],insulin release equivalent to that with 20 mM glucose
same,insulin release,[2],insulin release equivalent to that with 20 mM glucose
